System: MV-4-11 cells
Experiment: Gene expression microarray analysis (Affymetrix PrimeView) and GSEA
Assay type: cell-based, human
Design: RFU PODN (11730768_x_at) / Fold change /veh PODN (11730768_x_at) / RFU LINC00158 (11744669_a_at) / Fold change /veh LINC00158 (11744669_a_at) / RFU DUSP10 (11751237_a_at) / Fold change /veh DUSP10 (11751237_a_at) / RFU ID3 (11757404_x_at) / Fold change /veh ID3 (11757404_x_at) / RFU PLEKHG5 (11737974_s_at) / Fold change /veh PLEKHG5 (11737974_s_at) / RFU LRRC4B (11730491_at) / Fold change /veh LRRC4B (11730491_at) / RFU GIMAP4 (11747438_a_at) / Fold change /veh GIMAP4 (11747438_a_at) / RFU KRT8 (11758183_x_at) / Fold change /veh KRT8 (11758183_x_at) / RFU CNN1 (11734310_a_at) / Fold change /veh CNN1 (11734310_a_at) / RFU VPS37D (11726825_at) / Fold change /veh VPS37D (11726825_at) / RFU C10orf10 (11716522_x_at) / Fold change /veh C10orf10 (11716522_x_at) / RFU KIR2DL2 /// KIR2DL4 /// KIR2DL5A /// KIR2DL5B /// KIR2DS1 /// KIR2DS2 /// KIR2DS3 /// KIR2DS4 /// KIR3DL3 /// KIR3DL3 /// KIR3DS1 (11738374_at) / Fold change /veh KIR2DL2 /// KIR2DL4 /// KIR2DL5A /// KIR2DL5B /// KIR2DS1 /// KIR2DS2 /// KIR2DS3 /// KIR2DS4 /// KIR3DL3 /// KIR3DL3 /// KIR3DS1 (11738374_at) / RFU C1QL1 (11718748_at) / Fold change /veh C1QL1 (11718748_at) / RFU TMPRSS4 (11747572_a_at) / Fold change /veh TMPRSS4 (11747572_a_at) / RFU HAMP (11756126_x_at) / Fold change /veh HAMP (11756126_x_at) / RFU RNFT2 (11725882_a_at) / Fold change /veh RNFT2 (11725882_a_at) / RFU NR4A2 (11747474_a_at) / Fold change /veh NR4A2 (11747474_a_at) / RFU ABCC12 (11746883_a_at) / Fold change /veh ABCC12 (11746883_a_at) / RFU TMEM136 (11760407_x_at) / Fold change /veh TMEM136 (11760407_x_at) / RFU CLDN22 /// WWC2 (11732394_at) / Fold change /veh CLDN22 /// WWC2 (11732394_at) / RFU HLA-DPB1 (11760878_x_at) / Fold change /veh HLA-DPB1 (11760878_x_at) / RFU SPINT1 (11716480_a_at) / Fold change /veh SPINT1 (11716480_a_at) / RFU GAP43 (11754022_s_at) / Fold change /veh GAP43 (11754022_s_at) / RFU A4GNT (11735810_at) / Fold change /veh A4GNT (11735810_at) / RFU PRB3 (11715151_x_at) / Fold change /veh PRB3 (11715151_x_at) / RFU TUBB4B (11761932_at) / Fold change /veh TUBB4B (11761932_at) / RFU CAPN14 (11732068_a_at) / Fold change /veh CAPN14 (11732068_a_at) / RFU TMCC2 (11721928_a_at) / Fold change /veh TMCC2 (11721928_a_at) / RFU IRGQ (11745062_a_at) / Fold change /veh IRGQ (11745062_a_at) / RFU FAM174B (11720279_a_at) / Fold change /veh FAM174B (11720279_a_at) / RFU TMPRSS4 (11748680_a_at) / Fold change /veh TMPRSS4 (11748680_a_at) / RFU FAM212B (11763350_a_at) / Fold change /veh FAM212B (11763350_a_at) / RFU PLEKHG5 (11743358_a_at) / Fold change /veh PLEKHG5 (11743358_a_at) / RFU ZSCAN30 (11745921_a_at) / Fold change /veh ZSCAN30 (11745921_a_at) / RFU CMKLR1 (11741424_a_at) / Fold change /veh CMKLR1 (11741424_a_at) / RFU LOC101060620 /// MAPK8IP1 (11723275_at) / Fold change /veh LOC101060620 /// MAPK8IP1 (11723275_at) / RFU SPTSSB (11747773_x_at) / Fold change /veh SPTSSB (11747773_x_at) / RFU PRSS12 (11739890_at) / Fold change /veh PRSS12 (11739890_at) / RFU BIN1 (11741810_x_at) / Fold change /veh BIN1 (11741810_x_at) / RFU WNT11 (11732464_a_at) / Fold change /veh WNT11 (11732464_a_at) / RFU C10orf10 (11716521_a_at) / Fold change /veh C10orf10 (11716521_a_at) / RFU C5orf56 (11738089_at) / Fold change /veh C5orf56 (11738089_at) / RFU CYB561 (11721691_x_at) / Fold change /veh CYB561 (11721691_x_at) / RFU ANKRD19P (11752326_a_at) / Fold change /veh ANKRD19P (11752326_a_at) / RFU OR2T12 /// OR2T33 /// OR2T8 (11738714_s_at) / Fold change /veh OR2T12 /// OR2T33 /// OR2T8 (11738714_s_at) / RFU VCAN (11748164_a_at) / Fold change /veh VCAN (11748164_a_at) / RFU JSRP1 (11732532_at) / Fold change /veh JSRP1 (11732532_at) / RFU KRTAP10-11 (11738290_x_at) / Fold change /veh KRTAP10-11 (11738290_x_at) / RFU MYO3A (11730013_a_at) / Fold change /veh MYO3A (11730013_a_at) / RFU EBF3 (11725865_a_at) / Fold change /veh EBF3 (11725865_a_at) / RFU CAMK2N1 (11719241_x_at) / Fold change /veh CAMK2N1 (11719241_x_at) / RFU C5orf56 (11738088_a_at) / Fold change /veh C5orf56 (11738088_a_at) / RFU OLFML3 (11715873_a_at) / Fold change /veh OLFML3 (11715873_a_at) / RFU LOC100653217 /// NTM (11731650_a_at) / Fold change /veh LOC100653217 /// NTM (11731650_a_at) / RFU MAPK11 (11762145_a_at) / Fold change /veh MAPK11 (11762145_a_at) / RFU FIZ1 (11724087_x_at) / Fold change /veh FIZ1 (11724087_x_at) / RFU OASL (11726364_x_at) / Fold change /veh OASL (11726364_x_at) / RFU SOX15 (11748057_x_at) / Fold change /veh SOX15 (11748057_x_at) / RFU CD79A (11719716_a_at) / Fold change /veh CD79A (11719716_a_at) / RFU HIST1H1D (11736915_at) / Fold change /veh HIST1H1D (11736915_at) / RFU CASKIN2 (11723855_a_at) / Fold change /veh CASKIN2 (11723855_a_at) / RFU LOC730098 (11760151_x_at) / Fold change /veh LOC730098 (11760151_x_at) / RFU OR4N2 (11742367_at) / Fold change /veh OR4N2 (11742367_at) / RFU PRRT2 (11749266_a_at) / Fold change /veh PRRT2 (11749266_a_at) / RFU SNX32 (11753110_a_at) / Fold change /veh SNX32 (11753110_a_at) / RFU CDHR5 (11726645_a_at) / Fold change /veh CDHR5 (11726645_a_at) / RFU RCAN1 (11760418_a_at) / Fold change /veh RCAN1 (11760418_a_at) / RFU FAM167A (11723789_a_at) / Fold change /veh FAM167A (11723789_a_at) / RFU FAM26E (11764081_at) / Fold change /veh FAM26E (11764081_at) / RFU ISYNA1 (11749810_s_at) / Fold change /veh ISYNA1 (11749810_s_at) / RFU ACY1 (11761880_at) / Fold change /veh ACY1 (11761880_at) / RFU 11764098_at / Fold change /veh 11764098_at / RFU SAMD14 (11745864_x_at) / Fold change /veh SAMD14 (11745864_x_at) / RFU NPB (11741838_a_at) / Fold change /veh NPB (11741838_a_at) / RFU TMPRSS6 (11731388_a_at) / Fold change /veh TMPRSS6 (11731388_a_at) / RFU KRTAP10-2 (11738614_at) / Fold change /veh KRTAP10-2 (11738614_at) / RFU ARHGAP8 /// PRR5-ARHGAP8 (11727945_x_at) / Fold change /veh ARHGAP8 /// PRR5-ARHGAP8 (11727945_x_at) / RFU KRTAP5-7 /// NADSYN1 (11734609_at) / Fold change /veh KRTAP5-7 /// NADSYN1 (11734609_at) / RFU RASL12 (11751679_a_at) / Fold change /veh RASL12 (11751679_a_at) / RFU CDKN2B (11736163_a_at) / Fold change /veh CDKN2B (11736163_a_at) / RFU PRF1 (11729649_at) / Fold change /veh PRF1 (11729649_at) / RFU, ZNF638 /// ZNF638-IT1 / Fold change vs veh, ZNF638 /// ZNF638-IT1 / RFU, PANK3 / Fold change vs veh, PANK3 / RFU, SH3YL1 / Fold change vs veh, SH3YL1 / RFU, ZEB2 / Fold change vs veh, ZEB2 / RFU, NRIP1 / Fold change vs veh, NRIP1 / RFU, PTTG1IP / Fold change vs veh, PTTG1IP / RFU, CAPN2 / Fold change vs veh, CAPN2 / RFU, MED14 / Fold change vs veh, MED14 / RFU, SNORA58 / Fold change vs veh, SNORA58 / RFU, C1orf63 / Fold change vs veh, C1orf63 / RFU, LRRFIP1 / Fold change vs veh, LRRFIP1 / RFU, NDUFAF7 / Fold change vs veh, NDUFAF7 / RFU, SLC12A2 / Fold change vs veh, SLC12A2 / RFU, IBTK / Fold change vs veh, IBTK / RFU, ESF1 / Fold change vs veh, ESF1 / Fold change vs veh, TMEM50B / RFU, TAOK1 / Fold change vs veh, TAOK1 / RFU, ACBD3 / Fold change vs veh, ACBD3 / RFU, TMA16 / Fold change vs veh, TMA16 / RFU, RWDD3 / Fold change vs veh, RWDD3 / RFU, BCAT1 / Fold change vs veh, BCAT1 / RFU, EDEM3 / Fold change vs veh, EDEM3 / RFU, TMEM33 / Fold change vs veh, TMEM33 / RFU, WDR75 / Fold change vs veh, WDR75 / RFU, AHCTF1 / Fold change vs veh, AHCTF1 / RFU, TFRC / Fold change vs veh, TFRC / RFU, ZDHHC17 / Fold change vs veh, ZDHHC17 / RFU, NOM1 / Fold change vs veh, NOM1 / RFU, ARL8B / Fold change vs veh, ARL8B / RFU, ZBTB11 / Fold change vs veh, ZBTB11 / RFU, TAMM41 / Fold change vs veh, TAMM41 / RFU, KIAA1704 /// LOC100996395 / Fold change vs veh, KIAA1704 /// LOC100996395 / RFU, ING1 / Fold change vs veh, ING1 / RFU, TRMT61B / Fold change vs veh, TRMT61B / RFU, FUBP3 / Fold change vs veh, FUBP3 / RFU, TP53 / Fold change vs veh, TP53 / RFU, TNKS2 / Fold change vs veh, TNKS2 / RFU, ZFP14 / Fold change vs veh, ZFP14 / RFU, ACTR2 / Fold change vs veh, ACTR2 / RFU, PPP3R1 / Fold change vs veh, PPP3R1 / RFU, PIK3R1 / Fold change vs veh, PIK3R1 / RFU, HNRNPA1 / Fold change vs veh, HNRNPA1 / RFU, RNF170 / Fold change vs veh, RNF170 / RFU, ZNF28 / Fold change vs veh, ZNF28 / RFU, RNGTT / Fold change vs veh, RNGTT / RFU, OGT / Fold change vs veh, OGT / RFU, BRD1 / Fold change vs veh, BRD1 / RFU, MARS / Fold change vs veh, MARS / RFU, ZNF655 / Fold change vs veh, ZNF655 / RFU, FAHD1 / Fold change vs veh, FAHD1 / RFU, BDP1 / Fold change vs veh, BDP1 / RFU, LRRCC1 / Fold change vs veh, LRRCC1 / RFU, ARID1A / Fold change vs veh, ARID1A / RFU, ZNF146 / Fold change vs veh, ZNF146 / RFU, ZNF330 / Fold change vs veh, ZNF330 / RFU, GPN3 / Fold change vs veh, GPN3 / RFU, C9orf123 / Fold change vs veh, C9orf123 / RFU, N4BP2L2 / Fold change vs veh, N4BP2L2 / RFU, ARFIP1 / Fold change vs veh, ARFIP1 / RFU, FAM179B / Fold change vs veh, FAM179B / RFU, BCL10 / Fold change vs veh, BCL10 / RFU, UHRF1BP1L / Fold change vs veh, UHRF1BP1L / RFU, BET1 / Fold change vs veh, BET1 / RFU, CNOT2 / Fold change vs veh, CNOT2 / RFU, ZNF268 / Fold change vs veh, ZNF268 / Fold change vs veh, ZNF507 / RFU, DGCR2 / Fold change vs veh, DGCR2 / RFU, WDSUB1 / Fold change vs veh, WDSUB1 / Fold change vs veh, HSP90B1 /// MIR3652 / RFU, ADSS / Fold change vs veh, ADSS / RFU, GK / Fold change vs veh, GK / RFU, ZNF148 / Fold change vs veh, ZNF148 / RFU, TAF9 / Fold change vs veh, TAF9 / RFU, SLC1A5 / Fold change vs veh, SLC1A5 / RFU, SLMO2 / Fold change vs veh, SLMO2 / RFU, ABCC4 / Fold change vs veh, ABCC4 / RFU, LOC101060439 /// RAP1B / Fold change vs veh, LOC101060439 /// RAP1B / RFU, RFX7 / Fold change vs veh, RFX7 / RFU, GTPBP10 / Fold change vs veh, GTPBP10 / RFU, CNEP1R1 / Fold change vs veh, CNEP1R1 / RFU, BIVM-ERCC5 /// ERCC5 / Fold change vs veh, BIVM-ERCC5 /// ERCC5 / RFU, ILF3 / Fold change vs veh, ILF3 / RFU 11762660_at / Fold change /veh 11762660_at / RFU VCAN (11757783_s_at) / Fold change /veh VCAN (11757783_s_at) / RFU DDX43 (11728927_at) / Fold change /veh DDX43 (11728927_at) / RFU KRT8 (11758188_x_at) / Fold change /veh KRT8 (11758188_x_at) / RFU NKD1 (11759106_at) / Fold change /veh NKD1 (11759106_at) / RFU SRD5A1 (11742802_a_at) / Fold change /veh SRD5A1 (11742802_a_at) / RFU TPSAB1 /// TPSB2 (11721975_s_at) / Fold change /veh TPSAB1 /// TPSB2 (11721975_s_at) / RFU GSTM3 (11746129_a_at) / Fold change /veh GSTM3 (11746129_a_at) / RFU IL23R (11737362_x_at) / Fold change /veh IL23R (11737362_x_at) / RFU TMEM51 (11727254_a_at) / Fold change /veh TMEM51 (11727254_a_at) / RFU PIWIL2 (11732686_x_at) / Fold change /veh PIWIL2 (11732686_x_at) / RFU ORM1 (11744905_x_at) / Fold change /veh ORM1 (11744905_x_at) / RFU CCDC152 (11743942_at) / Fold change /veh CCDC152 (11743942_at) / RFU ECM1 (11717891_a_at) / Fold change /veh ECM1 (11717891_a_at) / RFU IL23R (11748794_a_at) / Fold change /veh IL23R (11748794_a_at) / RFU TNFAIP8L3 (11732012_x_at) / Fold change /veh TNFAIP8L3 (11732012_x_at) / RFU MBOAT4 (11741988_at) / Fold change /veh MBOAT4 (11741988_at) / RFU 11764193_at / Fold change /veh 11764193_at / RFU TMEM53 (11763286_at) / Fold change /veh TMEM53 (11763286_at) / RFU MAGEB2 (11727129_at) / Fold change /veh MAGEB2 (11727129_at) / RFU TMEM200A (11744735_a_at) / Fold change /veh TMEM200A (11744735_a_at) / RFU CCDC152 (11751479_a_at) / Fold change /veh CCDC152 (11751479_a_at) / RFU FAM211A (11726209_a_at) / Fold change /veh FAM211A (11726209_a_at) / RFU RGS16 (11746705_a_at) / Fold change /veh RGS16 (11746705_a_at) / RFU VCAN (11755009_s_at) / Fold change /veh VCAN (11755009_s_at) / RFU RHOB (11743442_s_at) / Fold change /veh RHOB (11743442_s_at) / RFU RGS16 (11720943_a_at) / Fold change /veh RGS16 (11720943_a_at) / RFU RGS16 (11720944_at) / Fold change /veh RGS16 (11720944_at) / RFU, VPS4B / Fold change vs veh, VPS4B / RFU, CREB1 / Fold change vs veh, CREB1 / RFU, DNAJC13 / Fold change vs veh, DNAJC13 / RFU, GNAQ / Fold change vs veh, GNAQ / RFU, CDK5R1 / Fold change vs veh, CDK5R1 / RFU, ZRANB3 / Fold change vs veh, ZRANB3 / RFU, CUL4A / Fold change vs veh, CUL4A / RFU, CCNY / Fold change vs veh, CCNY / RFU, UFL1 / Fold change vs veh, UFL1 / RFU, COG3 / Fold change vs veh, COG3 / RFU, DIAPH2 / Fold change vs veh, DIAPH2 / RFU, SKA2 / Fold change vs veh, SKA2 / RFU, AFF3 / Fold change vs veh, AFF3 / RFU, LMF1 / Fold change vs veh, LMF1 / RFU, IPO11 / Fold change vs veh, IPO11 / RFU, DFFB / Fold change vs veh, DFFB / RFU, FOXP1 / Fold change vs veh, FOXP1 / RFU, CARD8 / Fold change vs veh, CARD8 / RFU, STRN3 / Fold change vs veh, STRN3 / RFU, ADK / Fold change vs veh, ADK / RFU, RASSF2 / Fold change vs veh, RASSF2 / RFU, WIPF1 / Fold change vs veh, WIPF1 / RFU, LARP1B / Fold change vs veh, LARP1B / RFU, RASA1 / Fold change vs veh, RASA1 / RFU, RB1 / Fold change vs veh, RB1 / RFU, PPFIA1 / Fold change vs veh, PPFIA1 / RFU, MAT2A / Fold change vs veh, MAT2A / RFU, CCT5 / Fold change vs veh, CCT5 / RFU, WDR92 / Fold change vs veh, WDR92 / RFU, CUX1 / Fold change vs veh, CUX1 / RFU, TTC7A / Fold change vs veh, TTC7A / RFU, TMEM135 / Fold change vs veh, TMEM135 / RFU, DEPTOR / Fold change vs veh, DEPTOR / RFU, CPM / Fold change vs veh, CPM / RFU, DNAJB6 / Fold change vs veh, DNAJB6 / RFU, CACNA2D3 / Fold change vs veh, CACNA2D3 / RFU, DTX4 / Fold change vs veh, DTX4 / RFU, TFCP2 / Fold change vs veh, TFCP2 / RFU, GMCL1 /// GMCL1P1 / Fold change vs veh, GMCL1 /// GMCL1P1 / RFU, AEBP2 / Fold change vs veh, AEBP2 / RFU, SNHG1 /// SNORD22 /// SNORD25 /// SNORD26 /// SNORD27 /// SNORD28 /// SNORD29 /// SNORD31 / Fold change vs veh, SNHG1 /// SNORD22 /// SNORD25 /// SNORD26 /// SNORD27 /// SNORD28 /// SNORD29 /// SNORD31 / Fold change (Aza/veh), C12orf56 (ProbeSet 11735607_a_at) / Fold change (ACY-1035/veh), C12orf56 (ProbeSet 11735607_a_at) / Fold change (Aza/veh), FGFR1OP (ProbeSet 11751329_s_at) / Fold change (ACY-1035/veh), FGFR1OP (ProbeSet 11751329_s_at) / Fold change (Aza/veh), VPS36 (ProbeSet 11739960_a_at) / Fold change (ACY-1035/veh), VPS36 (ProbeSet 11739960_a_at) / RFU SYPL1 (11715823_x_at) / Fold change /veh SYPL1 (11715823_x_at) / RFU IGFBP7 (11715501_s_at) / Fold change /veh IGFBP7 (11715501_s_at) / RFU REEP3 (11722064_at) / Fold change /veh REEP3 (11722064_at) / RFU IGLL1 (11728026_x_at) / Fold change /veh IGLL1 (11728026_x_at): dose or concentration left out as unconfirmed
Conditions: MV-4-11 cells, 48 hours

SMILES: Nc1ncn([C@@H]2O[C@H](CO)[C@@H](O)[C@H]2O)c(=O)n1 [azacitidine]
- Fold change /veh PRB3 (11715151_x_at): 0.94

Reference: article PMC5218480 (PLoS ONE, 2017)
